IC50 data for eleven compounds are collected here from US7700593B2, “Imidazo- and triazolo-pyridine compounds and methods of use thereof” (Amgen Inc., priority 2006, dated 2010).

For test [1], the system named is monocytes. Description: Lipopolysaccharide-activated monocyte TNF production assay (LPS induced TNF release). The test is classed as cell-based, human. The following applies: Homo sapiens, Monocyte; LPS induced TNF release from monocytes; read-out: LPS induced TNFa. On the procedure: Lipopolysaccharide-Activated Monocyte TNF Production Assay
Test compounds were evaluated in vitro for the ability to inhibit the production of TNF by monocytes activated with bacterial lipopolysaccharide (LPS). Fresh residual source leukocytes (a byproduct of plateletpheresis) were obtained from a local blood bank, and peripheral blood mononuclear cells (PBMCs) were isolated by density gradient centrifugation on Ficol-Paque Plus (Pharmacia). PBMCs were suspended at 2×10^6/mL in DMEM supplemented to contain 2% FCS, 10 mM, 0.3 mg/mL […], 100 U/mL penicillin G and […] streptomycin sulfate (complete media). Cells were plated into Falcon flat bottom, 96 well culture plates (200 μL/well) and cultured overnight at 37° C. and 6% CO2. Non-adherent cells were removed by washing with 200 μl/well of fresh medium. Wells containing adherent cells (˜70% monocytes) were replenished with 100 μL of fresh medium.
Preparation of Test Compound Stock Solutions
Test compounds were dissolved in […]. Compound stock solutions were prepared to an initial concentration of […]. Stocks were diluted initially to […] in complete media. Nine two-fold serial dilutions of each compound were then prepared in complete medium.
Treatment of Cells with Test Compounds and Activation of TNF Production with Lipopolysaccharide
One hundred microliters of each test compound dilution were added to microtiter wells containing adherent monocytes and 100 μL complete medium. Monocytes were cultured with test compounds for 60 min at which time 25 μL of complete medium containing 30 ng/mL lipopolysaccharide from E. coli K532 were added to each well. Cells were cultured an additional 4 hrs. Culture supernatants were then removed and TNF presence in the supernatants was quantified using an ELISA.
Flat bottom, 96 well Corning High Binding ELISA plates were coated overnight (4° C.) with 150 μL/well of 3 μg/mL murine anti-human TNF-α MAb (R&D Systems #MAB210). Wells were then blocked for 1 h at room temperature with 200 μL/well of CaCl2-free ELISA buffer supplemented to contain 20 mg/mL BSA (standard ELISA buffer: […], 150 mM NaCl, 2 mM CaCl2, 0.15 mM thimerosal, pH 7.4). Plates were washed and replenished with 100 μL of test supernatants (diluted 1:3) or standards. Standards consisted of eleven 1.5-fold serial dilutions from a stock of 1 ng/mL recombinant human TNF (R&D Systems). Plates were incubated at room temperature for 1 h on orbital shaker (300 rpm), washed and replenished with 100 μL/well of 0.5 μg/mL goat anti-human TNF-α (R&D systems #AB-210-NA) biotinylated at a 4:1 ratio. Plates were incubated for 40 min, washed and replenished with 100 μL/well of alkaline phosphatase-conjugated streptavidin (Jackson ImmunoResearch #016-050-084) at 0.02 μg/mL. Plates were incubated 30 min, washed and replenished with 200 μL/well of 1 mg/mL of p-nitrophenyl phosphate.
Standard curve data were fit to a second order polynomial and unknown TNF-α concentrations determined from their OD by solving this equation for concentration. TNF concentrations were then plotted vs. test compound concentration using a second order polynomial. This equation was then used to calculate the concentration of test compounds causing a 50% reduction in TNF production.

The subject of test [2] is THP1 cells. Description: Lipopolysaccharide-activated THP1 cell TNF production assay. The test is classed as cell-based, human. The following applies: Homo sapiens, THP-1; LPS-induced TNF-α production in THP1 cells. On the procedure:
Lipopolysaccharide-Activated THP1 Cell TNF Production Assay
THP1 cells are resuspended in fresh THP1 media (RPMI 1640, 10% heat-inactivated FBS, 1×PGS, 1×NEAA, plus 30 μM βME) at a concentration of 1E6/mL. One hundred microliters of cells per well are plated in a polystyrene 96-well tissue culture. One microgram per mL of bacterial LPS is prepared in THP1 media and is transferred to the wells. Test compounds are dissolved in 100% DMSO and are serially diluted 3-fold in a polypropylene 96-well microtiter plate (drug plate). HI control and LO control wells contain only DMSO. One microliter of test compound from the drug plate followed by 10 μL of LPS are transferred to the cell plate. The treated cells are induced to synthesize and secrete TNF-α at 37° C. for 3 h. Forty microliters of conditioned media are transferred to a 96-well polypropylene plate containing 110 μL of ECL buffer (50 mM Tris-HCl pH 8.0, 100 mM NaCl, 0.05% Tween 20, 0.05% NaN3 and 1% FBS) supplemented with 0.44 nM MAB610 monoclonal Ab (R&D Systems), 0.34 nM ruthenylated AF210NA polyclonal Ab (R&D Systems) and 44 μg/mL sheep anti-mouse M280 Dynabeads (Dynal). After a 2 h incubation at room temperature with shaking, the reaction is read on the ECL M8 Instrument (IGEN Inc.). A low voltage is applied to the ruthenylated TNF-α immune complexes, which in the presence of TPA (the active component in Origlo), results in a cyclical redox reaction generating light at […]. The amount of secreted TNF-α in the presence of compound compared with that in the presence of DMSO vehicle alone (HI control) is calculated using the formula: % control (POC)=(cpd−average LO)/(average HI−average LO)*100. Data (consisting of POC and inhibitor concentration in μM) is fitted to a 4-parameter equation (y=A+((B−A)/(1+((x/C)^D))), where A is the minimum y (POC) value, B is the maximum y (POC), C is the x (cpd concentration) at the point of inflection and D is the slope factor) using a Levenburg-Marquardt non-linear regression algorithm.

Test [3] addresses p38α (Homo sapiens, UniProt Q16539). Description: p38 in-vitro HTRF enzyme assay. The following applies: IC50 value ranges. The test is classed as biochemical. On the procedure:
p38 In-Vitro HTRF Enzyme Assay
The compounds of the invention can be tested for their respective affinities for the p38 protein using a conventional p38 in-vitro enzyme activity assay. For example, a P38-alpha HTRF assay may be used to measure the protein's in-vitro phosphorylation activity, and the data analyzed using time resolved fluorimetry techniques (FRET). A p38 HTRF assay is as follows. The kinase reaction buffer for p38α, p38β, p38δ and p38γ HTRF assays consists of 50 mM Tris-pH 7.5, 5 mM MgCl2, 0.1 mg/mL BSA, 100 μM Na3VO4 and 0.5 mM DTT. The HTRF detection buffer contains 100 mM HEPES-pH 7.5, 100 mM NaCl, 0.1% BSA, 0.05% Tween-20, and 10 mM EDTA. Each compound was dissolved in 100% DMSO and serially diluted (3 fold, 10 point) in a polypropylene 96-well microtiter plate (drug plate). The final starting concentration of the compound in the p38α and p38β enzymatic assays was about 1 μM. The final starting concentration of each compound in the p38δ and p38γ enzymatic assays was about 10 μM. The p38α, p38β, p38δ and p38γ kinase reactions were carried out in a polypropylene 96-well black round bottom assay plate in total volume of 30 μL kinase reaction buffer. Appropriate concentration of purified and activated enzyme (recombinant human) was mixed with indicated concentration of ATP and 100 nM GST-ATF2-Avitag, in the presence or absence (HI control) of each compound. In the absence of enzyme, the background was measured as LO control. HI controls and LO controls contained only DMSO. The reaction was allowed to incubate for 1 hour at RT. […] After 60 minutes incubation at room temperature, the assay plate was read in a Discovery Plate Reader. The wells were excited with coherent 320 nm light and the ratio of delayed ([…] post excitation) emissions at […] (native europium fluorescence) and 665 nm (europium fluorescence transferred to allophycocyanin—an index of substrate phosphorylation) was determined (Park et al, 1999). The resulting data was analyzed by taking the proportion of substrate phosphorylated in the kinase reaction in the presence of each individual compound and comparing it with that phosphorylated in the presence of DMSO vehicle alone (HI control). The data was calculated using the formula: % control (POC)=(compound−average LO)/(average HI−average LO)*100. Data (consisting of POC and inhibitor concentration in μM) was fitted to a 4-parameter equation (y=A+((B−A)/(1+((x/C)^D))), where A is the minimum y (POC) value, B is the maximum y (POC), C is the x (compound concentration) at the point of inflection and D is the slope factor, using a Levenburg-Marquardt non-linear regression algorithm. The inhibition constant (Ki) of the inhibitor was estimated from the IC50 (compound concentration at the point of inflection C) using the Cheng-Prussof equation: Ki=IC50/(1+S/Km), where S is the ATP substrate concentration, and Km is the Michaelis constant for ATP as determined experimentally. All results were expressed as the mean±the standard error of the mean. Data acquisition and non-linear regression algorithms were performed using Activity Base v5.2 and XLfit software v4.1 respectively. Additional assay information may be obtained in Park Y W, Cummings R T, Wu L, et al. Homogeneous Proximity Tyrosine Kinase Assays Scintillation Proximity Assay versus Homogeneous Time-Resolved Fluorescence. Analytical Biochemistry. 1999; 269: 94-104.
For orientation: In TR-FRET formats the signal depends on donor and acceptor labels being close together.

p38α, sequence (Q16539 whole entry): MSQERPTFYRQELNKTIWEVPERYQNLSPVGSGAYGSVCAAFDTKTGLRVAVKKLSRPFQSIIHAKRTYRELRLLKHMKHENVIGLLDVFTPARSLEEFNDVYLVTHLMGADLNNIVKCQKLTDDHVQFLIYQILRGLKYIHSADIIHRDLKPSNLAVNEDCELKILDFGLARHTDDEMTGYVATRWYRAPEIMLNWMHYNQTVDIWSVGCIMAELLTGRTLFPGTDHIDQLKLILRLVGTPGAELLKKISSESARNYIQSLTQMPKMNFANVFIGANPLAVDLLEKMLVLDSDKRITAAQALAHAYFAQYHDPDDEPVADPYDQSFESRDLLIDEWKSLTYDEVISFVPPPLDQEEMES

As to `Cc1ccc(C(=O)Nc2ccnn2C)cc1-c1ccn2c(-c3cc(F)cc(F)c3)ncc2c1` [Example 8, 3-(3-(3,5-difluorophenyl)imidazo[1,5-a]pyridin-7-yl)-4-methyl-N-(1-methyl-1H-pyrazol-5-yl)benzamide], the results for the IC50 in test [1], in test [2] and in test [3] were 1000 to 5000 nM, 100 to 250 nM and < 25 nM, respectively.
As for `Cc1ccc(C(=O)Nc2ccnn2C)cc1-c1ccn2c(-c3ccccc3Cl)ncc2c1` [Example 9, 3-(3-(2-chlorophenyl)imidazo[1,5-a]pyridin-7-yl)-4-methyl-N-(1-methyl-1H-pyrazol-5-yl)benzamide], the IC50 in test [1] was 25 to 100 nM; in test [2] it was < 25 nM; in test [3] it was < 25 nM.
In the case of `Cc1ccc(C(=O)NC2CC2)cc1-c1ccn2c(-c3ccccc3Cl)nnc2c1` [Example 10, 3-(3-(2-chlorophenyl)[1,2,4]triazolo[4,3-a]pyridin-7-yl)-N-cyclopropyl-4-methylbenzamide], the IC50 in test [1] is 25 to 100 nM; in test [2], < 25 nM; in test [3] it was < 25 nM.
Turning to `Cc1ccc(C(=O)NC2(C)CC2)cc1-c1ccn2c(-c3ccccc3Cl)nnc2c1` [Example 11, 3-(3-(2-chlorophenyl)[1,2,4]triazolo[4,3-a]pyridin-7-yl)-4-methyl-N-(1-methylcyclopropyl)benzamide], the results for the IC50 in test [1], in test [2] and in test [3] were 25 to 100 nM, 25 to 100 nM and < 25 nM, respectively.
For the compound `Cc1ccc(C(=O)NC2CC2)cc1-c1ccn2c(-c3ccc(S(C)(=O)=O)cc3)nnc2c1` [Example 12, N-cyclopropyl-4-methyl-3-(3-(4-(methylsulfonyl)phenyl)[1,2,4]triazolo[4,3-a]pyridin-7-yl)benzamide], the IC50 in test [1] was in the range of 250 to 1000 nM; in test [2], 1000 to 5000 nM; in test [3], 25 to 100 nM.
With `Cc1ccc(C(=O)NC2(C)CC2)cc1-c1ccn2c(-c3ccc(S(C)(=O)=O)cc3)nnc2c1` [Example 13, 4-methyl-N-(1-methylcyclopropyl)-3-(3-(4-(methylsulfonyl)phenyl)[1,2,4]triazolo[4,3-a]pyridin-7-yl)benzamide], the IC50 lay within 250 to 1000 nM in test [1], 250 to 1000 nM in test [2] and 25 to 100 nM in test [3].
Regarding `Cc1ccc(C(=O)Nc2ccnn2C)cc1-c1ccn2c(-c3ccc(S(C)(=O)=O)cc3)nnc2c1` [Example 14, 4-methyl-N-(1-methyl-1H-pyrazol-5-yl)-3-(3-(4-(methylsulfonyl)phenyl)[1,2,4]triazolo[4,3-a]pyridin-7-yl)benzamide], the IC50 in test [1] fell in the range of 1000 to 5000 nM; in test [2], 1000 to 5000 nM; in test [3], 25 to 100 nM.
Consider `Cc1ccc(C(=O)NC2CC2)cc1-c1ccn2c(-c3ccc(F)cc3C)nnc2c1` [Example 15, N-cyclopropyl-3-(3-(4-fluoro-2-methylphenyl)[1,2,4]triazolo[4,3-a]pyridin-7-yl)-4-methylbenzamide], for which the IC50 in test [1] was 25 to 100 nM; in test [2], < 25 nM; in test [3] it was < 25 nM.
As for `Cc1ccc(C(=O)NC2(C)CC2)cc1-c1ccn2c(-c3ccc(F)cc3C)nnc2c1` [Example 16, 3-(3-(4-fluoro-2-methylphenyl)[1,2,4]triazolo[4,3-a]pyridin-7-yl)-4-methyl-N-(1-methylcyclopropyl)benzamide], the IC50 fell in the range of 100 to 250 nM in test [1], 100 to 250 nM in test [2] and 25 to 100 nM in test [3].
Consider `Cc1ccc(C(=O)Nc2ccnn2C)cc1-c1ccn2c(-c3ccc(F)cc3C)nnc2c1` [Example 17, 3-(3-(4-fluoro-2-methylphenyl)[1,2,4]triazolo[4,3-a]pyridin-7-yl)-4-methyl-N-(1-methyl-1H-pyrazol-5-yl)benzamide], for which the IC50 in test [1], in test [2] and in test [3] was < 25 nM throughout.
For `Cc1ccc(C(=O)NC2CC2)cc1-c1ccn2c(-c3cccc(S(C)(=O)=O)c3)nnc2c1` [Example 18, N-cyclopropyl-4-methyl-3-(3-(3-(methylsulfonyl)phenyl)[1,2,4]triazolo[4,3-a]pyridin-7-yl)benzamide], the IC50 in test [1] lay within 100 to 250 nM; in test [2] it was 250 to 1000 nM; in test [3], 25 to 100 nM.
